Converted amounts (≈) assume the structure as drawn. The source made the active and inactive calls. The rule behind the calls is not given here.
Columns and labels:
[1] = Genotoxicity in Salmonella typhimurium TA98 assessed as number of revertants at 1x10^-3 mg/plate incubated for 72 hrs in presence of liver S9 fraction by Ames test (reference value: 43.67+/- 7.1); type: toxicity, subcellular; settings: salmonella enterica subsp. enterica serovar typhimurium, s9, 72 h
Escherichia coli [2] = experiment: Antibacterial activity against Escherichia coli ATCC 25922 incubated for 16 to 20 hrs in presence of 50% foetal bovine serum by broth microdilution method; type: functional; settings: time 16-20 hrs
[3] = Genotoxicity in Salmonella typhimurium TA1535 assessed as number of revertants at 4x10^-5 mg/plate incubated for 72 hrs in presence of liver S9 fraction by Ames test (reference value: 15.33 +/- 2.52); type: toxicity, subcellular; settings: salmonella enterica subsp. enterica serovar typhimurium, s9, 72 h
[4] = Toxicity in Kunming mouse infected with Staphylococcus aureus ATCC 25923 assessed as appearance of pink and spongy lungs at 20 to 40 mg/kg, iv measured after 1 hr by hematoxylin and eosin staining based microscopic analysis; type: organism-based; settings: in vivo, dose 20-40 mg/kg
Staphylococcus aureus [5] = experiment: Antibacterial activity against Staphylococcus aureus ATCC 29213 at pH 8.4 incubated for 16 to 20 hrs by broth microdilution method; type: functional; settings: time 16-20 hrs
[6] = Genotoxicity in Salmonella typhimurium TA1535 assessed as number of revertants at 2x10^-4 mg/plate incubated for 72 hrs in presence of liver S9 fraction by Ames test (reference value: 15.33 +/- 2.52); type: toxicity, subcellular; settings: salmonella enterica subsp. enterica serovar typhimurium, s9, 72 h
Staphylococcus aureus [7] = experiment: Antibacterial activity against Staphylococcus aureus ATCC 29213 at pH 8.6 incubated for 16 to 20 hrs in presence of 25% foetal bovine serum by broth microdilution method; type: functional; settings: time 16-20 hrs
Staphylococcus aureus [8] = experiment: Antibacterial activity against Staphylococcus aureus ATCC 29213 at pH 8 incubated for 16 to 20 hrs by broth microdilution method; type: functional; settings: time 16-20 hrs
[9] = Genotoxicity in Salmonella typhimurium TA100 assessed as number of revertants at 4x10^-5 mg/plate incubated for 72 hrs in absence of liver S9 fraction by Ames test (reference value: 221.67 +/- 15.57); type: toxicity; settings: salmonella enterica subsp. enterica serovar typhimurium, s9, 72 h
[10] = Genotoxicity in Salmonella typhimurium TA1535 assessed as number of revertants at 8x10^-6 mg/plate incubated for 72 hrs in presence of liver S9 fraction by Ames test (reference value: 15.33 +/- 2.52); type: toxicity, subcellular; settings: salmonella enterica subsp. enterica serovar typhimurium, s9, 72 h
[11] = Genotoxicity in Salmonella typhimurium TA100 assessed as number of revertants at 2x10^-4 mg/plate incubated for 72 hrs in presence of liver S9 fraction by Ames test (reference value: 204.33 +/- 8.14); type: toxicity, subcellular; settings: salmonella enterica subsp. enterica serovar typhimurium, s9, 72 h
Escherichia coli [12] = experiment: Antibacterial activity against Escherichia coli ATCC 25922 incubated for 16 to 20 hrs in presence of 25% foetal bovine serum by broth microdilution method; type: functional; settings: time 16-20 hrs
Escherichia coli [13] = experiment: Antibacterial activity against Escherichia coli ATCC 25922 incubated for 16 to 20 hrs using 10^6 CFU/ml bacterial inoculum by broth microdilution method; type: functional; settings: time 16-20 hrs
Staphylococcus aureus [14] = experiment: Antibacterial activity against Staphylococcus aureus ATCC 29213 incubated for 16 to 20 hrs by broth microdilution method; type: functional; settings: time 16-20 hrs
Staphylococcus aureus [15] = experiment: Antibacterial activity against Staphylococcus aureus ATCC 29213 at pH 8.6 incubated for 16 to 20 hrs by broth microdilution method; type: functional; settings: time 16-20 hrs
Cronobacter sakazakii = experiment: Antibacterial activity against Cronobacter sakazakii ATCC 29544 incubated for 16 to 20 hrs by broth microdilution method; type: functional; settings: time 16-20 hrs
Escherichia coli [16] = experiment: Antibacterial activity against Escherichia coli ATCC 25922 at pH 6.8 incubated for 16 to 20 hrs by broth microdilution method; type: functional; settings: time 16-20 hrs
[17] = Genotoxicity in Salmonella typhimurium TA102 assessed as number of revertants at 4x10^-5 mg/plate incubated for 72 hrs in absence of liver S9 fraction by Ames test (reference value: 386.67 +/- 23.44); type: toxicity; settings: salmonella enterica subsp. enterica serovar typhimurium, s9, 72 h
[18] = Genotoxicity in Salmonella typhimurium TA102 assessed as number of revertants at 1.6x10^-6 mg/plate incubated for 72 hrs in absence of liver S9 fraction by Ames test (reference value: 386.67 +/- 23.44); type: toxicity; settings: salmonella enterica subsp. enterica serovar typhimurium, s9, 72 h
Escherichia coli [19] = experiment: Antibacterial activity against Escherichia coli ATCC 25922 at pH 7.6 incubated for 16 to 20 hrs by broth microdilution method; type: functional; settings: time 16-20 hrs
[20] = Genotoxicity in Salmonella typhimurium TA102 assessed as number of revertants at 2x10^-4 mg/plate incubated for 72 hrs in presence of liver S9 fraction by Ames test (reference value: 465.33 +/- 18.04); type: toxicity, subcellular; settings: salmonella enterica subsp. enterica serovar typhimurium, s9, 72 h
Escherichia coli [21] = experiment: Antibacterial activity against Escherichia coli ATCC 25922 incubated for 16 to 20 hrs using 10^5 CFU/ml bacterial inoculum by broth microdilution method; type: functional; settings: time 16-20 hrs
Escherichia coli [22] = experiment: Antibacterial activity against Escherichia coli ATCC 25922 at pH 8.2 incubated for 16 to 20 hrs by broth microdilution method; type: functional; settings: time 16-20 hrs
[23] = Genotoxicity in Salmonella typhimurium TA100 assessed as number of revertants at 1x10^-3 mg/plate incubated for 72 hrs in presence of liver S9 fraction by Ames test (reference value: 204.33 +/- 8.14); type: toxicity, subcellular; settings: salmonella enterica subsp. enterica serovar typhimurium, s9, 72 h
Staphylococcus aureus [24] = experiment: Antibacterial activity against Staphylococcus aureus ATCC 29213 at pH 6.8 incubated for 16 to 20 hrs by broth microdilution method; type: functional; settings: time 16-20 hrs
Escherichia coli [25] = experiment: Antibacterial activity against Escherichia coli ATCC 25922 at pH 8 incubated for 16 to 20 hrs by broth microdilution method; type: functional; settings: time 16-20 hrs
[26] = Toxicity in Kunming mouse infected with Staphylococcus aureus ATCC 25923 assessed as reduction in neutrophils at 20 to 40 mg/kg, iv measured after 1 hr by hematoxylin and eosin staining based microscopic analysis; type: organism-based; settings: in vivo, dose 20-40 mg/kg
[27] = tested on: Staphylococcus chromogenes; experiment: Antibacterial activity against Staphylococcus chromogenes incubated for 16 to 20 hrs by broth microdilution method; type: functional; settings: time 16-20 hrs
Pseudomonas aeruginosa = experiment: Antibacterial activity against Pseudomonas aeruginosa LTP-3 incubated for 16 to 20 hrs by broth microdilution method; type: functional; settings: time 16-20 hrs
[28] = Genotoxicity in Salmonella typhimurium TA102 assessed as number of revertants at 8x10^-6 mg/plate incubated for 72 hrs in presence of liver S9 fraction by Ames test (reference value: 465.33 +/- 18.04); type: toxicity, subcellular; settings: salmonella enterica subsp. enterica serovar typhimurium, s9, 72 h
[29] = Genotoxicity in Salmonella typhimurium TA102 assessed as number of revertants at 8x10^-6 mg/plate incubated for 72 hrs in absence of liver S9 fraction by Ames test (reference value: 386.67 +/- 23.44); type: toxicity; settings: salmonella enterica subsp. enterica serovar typhimurium, s9, 72 h
[30] = Genotoxicity in Salmonella typhimurium TA100 assessed as number of revertants at 8x10^-6 mg/plate incubated for 72 hrs in presence of liver S9 fraction by Ames test (reference value: 204.33 +/- 8.14); type: toxicity, subcellular; settings: salmonella enterica subsp. enterica serovar typhimurium, s9, 72 h
Staphylococcus aureus [31] = experiment: Antibacterial activity against Staphylococcus aureus ATCC 29213 at pH 7.2 incubated for 16 to 20 hrs by broth microdilution method; type: functional; settings: time 16-20 hrs
Escherichia coli [32] = experiment: Induction of drug resistance in Escherichia coli ATCC 25922 assessed as increase in MIC measured after 30 passages by broth microdilution method; type: functional
[33] = Genotoxicity in Salmonella typhimurium TA100 assessed as number of revertants at 8x10^-6 mg/plate incubated for 72 hrs in absence of liver S9 fraction by Ames test (reference value: 221.67 +/- 15.57); type: toxicity; settings: salmonella enterica subsp. enterica serovar typhimurium, s9, 72 h

## CC[C@H]1OC(=O)C[C@@H](O)[C@H](C)[C@@H](O[C@@H]2O[C@H](C)[C@@H](O)[C@H](N(C)C)[C@H]2O)[C@@H](CCN(C)Cc2cn(-c3cnc4ccccc4c3)nn2)C[C@@H](C)C(=O)/C=C/C(C)=C/[C@@H]1CN1CCCCCC1
[1]
  Activity: 40.33
Escherichia coli [2]
  MIC: 4 µg/mL
[3]
  Activity: 15
[4]
  Activity: Non-Toxic
Staphylococcus aureus [5]
  MIC: ≤ 0.0625 µg/mL
[6]
  Activity: 12.67
Staphylococcus aureus [7]
  MIC: 1 µg/mL
Staphylococcus aureus [8]
  MIC: ≤ 0.0625 µg/mL
[9]
  Activity: 201.67
[10]
  Activity: 13.67
[11]
  Activity: 220.67
Escherichia coli [12]
  MIC: 4 µg/mL
Escherichia coli [13]
  MIC: 0.5 µg/mL (≈ 0.554 µM)
Staphylococcus aureus [14]
  MIC: 0.125 µg/mL (≈ 0.139 µM)
Staphylococcus aureus [15]
  MIC: ≤ 0.0625 µg/mL
Cronobacter sakazakii
  MIC: 4 µg/mL (≈ 4.43 µM)
Escherichia coli [16]
  MIC: 8 µg/mL (≈ 8.87 µM)
[17]
  Activity: 429.33
[18]
  Activity: 371.33
Escherichia coli [19]
  MIC: 0.5 µg/mL (≈ 0.554 µM)
[20]
  Activity: 456.67
Escherichia coli [21]
  MIC: 0.5 µg/mL (≈ 0.554 µM)
Escherichia coli [22]
  MIC: 0.25 µg/mL (≈ 0.277 µM)
[23]
  Activity: 174.67
Staphylococcus aureus [24]
  MIC: 4 µg/mL (≈ 4.43 µM)
Escherichia coli [25]
  MIC: 0.25 µg/mL (≈ 0.277 µM)
[26]
  Activity: Non-Toxic
[27]
  MIC: 0.25 µg/mL (≈ 0.277 µM)
Pseudomonas aeruginosa
  MIC: 0.5 µg/mL (≈ 0.554 µM)
[28]
  Activity: 466.67
[29]
  Activity: 425.33
[30]
  Activity: 167
Staphylococcus aureus [31]
  MIC: 0.5 µg/mL (≈ 0.554 µM)
Escherichia coli [32]
  Activity: Active
[33]
  Activity: 226

Reference: ChEMBL document CHEMBL5126592, “Design, synthesis and activity against drug-resistant bacteria evaluation of C-20, C-23 modified 5-O-mycaminosyltylonolide derivatives” (Eur J Med Chem, 2022)
